Measured values: ChEMBL document CHEMBL3885861, “Open TG-GATES”

Species on record: Rattus norvegicus
Assay: Open TG-GATES - Regimen: Single
Format: toxicity, organism-based, Sprague-Dawley
Set-up: regimen Single, gender Male, age 6 weeks
Details: in vivo, po, route gavage; for APTT / Bas / Eos / Fbg / Hb / Lym / MCH / MCHC / MCV / Mono / RBC / Ret / WBC: tissue Blood; for KIDNEY_L / KIDNEY_R / KIDNEY_TOTAL: tissue Kidney; for LIVER: tissue Liver; for ALP / ALT / AST / CRE / Ca / Cl / DBIL / GLC / IP / K / LDH / Na / PL / RALB / TBIL / TC / TG / TP / gamma-GTP: tissue Plasma
[1] = 0 mg/kg, 3 h, dose level Control
[2] = 0 mg/kg, 6 h, dose level Control
[3] = 0 mg/kg, 9 h, dose level Control
[4] = 0 mg/kg, 24 h, dose level Control

O=C1CN(/N=C/c2ccc(-c3ccc([N+](=O)[O-])cc3)o2)C(O)=N1 [DANTROLENE]
TERMINAL_BW [1]: 200.3 g | APTT [1]: 16.2 s | Bas [1]: 0% | Eos [1]: 1% | Fbg [1]: 209.6 mg/dL | Hb [1]: 13.4 g/dL | Lym [1]: 82.4% | MCH [1]: 22.9 pg | MCHC [1]: 34.6% | MCV [1]: 66.2 fL | Mono [1]: 5.6% | RBC [1]: 586.4 x10_4/ul | Ret [1]: 10.7% | WBC [1]: 134.1 x10_2/uL | KIDNEY_L [1]: 1 g | KIDNEY_R [1]: 1 g | KIDNEY_TOTAL [1]: 1.9 g | LIVER [1]: 9.3 g | ALP [1]: 876.8 IU/L | ALT [1]: 36.2 IU/L | AST [1]: 69.2 IU/L | CRE [1]: 0.5 mg/dL | Ca [1]: 10.6 mg/dL | Cl [1]: 103.8 meq/L | DBIL [1]: 0.058 mg/dL | GLC [1]: 194.2 mg/dL | IP [1]: 8.7 mg/dL | K [1]: 4.7 meq/L | LDH [1]: 92.8 IU/L | Na [1]: 139.6 meq/L | PL [1]: 134.8 mg/dL | RALB [1]: 3.6 g/dL | TBIL [1]: 0.3 mg/dL | TC [1]: 75 mg/dL | TG [1]: 47 mg/dL | TP [1]: 5.3 g/dL | gamma-GTP [1]: 2.2 IU/L | TERMINAL_BW [2]: 201.9 g | APTT [2]: 16.6 s | Bas [2]: 0% | Eos [2]: 1% | Fbg [2]: 205 mg/dL | Hb [2]: 13.3 g/dL | Lym [2]: 77.4% | MCH [2]: 22.6 pg | MCHC [2]: 34.6% | MCV [2]: 65.4 fL | Mono [2]: 9.2% | RBC [2]: 588 x10_4/ul | Ret [2]: 13.2% | WBC [2]: 107.2 x10_2/uL | KIDNEY_L [2]: 1 g | KIDNEY_R [2]: 0.9 g | KIDNEY_TOTAL [2]: 1.9 g | LIVER [2]: 9.3 g | ALP [2]: 689.6 IU/L | ALT [2]: 32.6 IU/L | AST [2]: 59.6 IU/L | CRE [2]: 0.5 mg/dL | Ca [2]: 10.5 mg/dL | Cl [2]: 104.4 meq/L | DBIL [2]: 0.064 mg/dL | GLC [2]: 196.4 mg/dL | IP [2]: 9.5 mg/dL | K [2]: 4.7 meq/L | LDH [2]: 82.2 IU/L | Na [2]: 140 meq/L | PL [2]: 135.2 mg/dL | RALB [2]: 3.5 g/dL | TBIL [2]: 0.3 mg/dL | TC [2]: 79.8 mg/dL | TG [2]: 58.2 mg/dL | TP [2]: 5.3 g/dL | gamma-GTP [2]: 1.2 IU/L | TERMINAL_BW [3]: 195.9 g | APTT [3]: 17.1 s | Bas [3]: 0% | Eos [3]: 1% | Fbg [3]: 200.6 mg/dL | Hb [3]: 13 g/dL | Lym [3]: 76.4% | MCH [3]: 21.5 pg | MCHC [3]: 33.1% | MCV [3]: 64.9 fL | Mono [3]: 9.8% | RBC [3]: 605.8 x10_4/ul | Ret [3]: 10.2% | WBC [3]: 98.6 x10_2/uL | KIDNEY_L [3]: 0.9 g | KIDNEY_R [3]: 0.9 g | KIDNEY_TOTAL [3]: 1.8 g | LIVER [3]: 8 g | ALP [3]: 881.6 IU/L | ALT [3]: 33.4 IU/L | AST [3]: 73.2 IU/L | CRE [3]: 0.5 mg/dL | Ca [3]: 10.1 mg/dL | Cl [3]: 107.6 meq/L | DBIL [3]: 0.084 mg/dL | GLC [3]: 200.2 mg/dL | IP [3]: 10.4 mg/dL | K [3]: 4.9 meq/L | LDH [3]: 80.2 IU/L | Na [3]: 140 meq/L | PL [3]: 127.2 mg/dL | RALB [3]: 3.6 g/dL | TBIL [3]: 0.4 mg/dL | TC [3]: 73.2 mg/dL | TG [3]: 21.2 mg/dL | TP [3]: 5.1 g/dL | gamma-GTP [3]: 1.6 IU/L | TERMINAL_BW [4]: 212.6 g | APTT [4]: 17.5 s | Bas [4]: 0% | Eos [4]: 1.2% | Fbg [4]: 207.4 mg/dL | Hb [4]: 13.2 g/dL | Lym [4]: 76.6% | MCH [4]: 21.9 pg | MCHC [4]: 33.7% | MCV [4]: 64.9 fL | Mono [4]: 9.4% | RBC [4]: 602.2 x10_4/ul | Ret [4]: 12.5% | WBC [4]: 91.9 x10_2/uL | KIDNEY_L [4]: 1 g | KIDNEY_R [4]: 1 g | KIDNEY_TOTAL [4]: 2 g | LIVER [4]: 10.2 g | ALP [4]: 993.6 IU/L | ALT [4]: 33.8 IU/L | AST [4]: 63.8 IU/L | CRE [4]: 0.5 mg/dL | Ca [4]: 10.9 mg/dL | Cl [4]: 105.6 meq/L | DBIL [4]: 0.012 mg/dL | GLC [4]: 198.4 mg/dL | IP [4]: 8 mg/dL | K [4]: 4.7 meq/L | LDH [4]: 80.6 IU/L | Na [4]: 141.6 meq/L | PL [4]: 144.2 mg/dL | RALB [4]: 3.7 g/dL | TBIL [4]: 0.4 mg/dL | TC [4]: 73.8 mg/dL | TG [4]: 91.6 mg/dL | TP [4]: 5.5 g/dL | gamma-GTP [4]: 1.8 IU/L | TERMINAL_BW (25 mg/kg, 3 h, dose level Low): 196.9 g | APTT (25 mg/kg, 3 h, dose level Low): 16.9 s
